Consider 2 molecules from patent publication US6579693B1, “Genetically engineered yeast strains” (Aventis Pharma S.A., priority 1995, dated 2003).

The subject of series [1] is W(Ghr, ΔB) clones. Put plainly: resistance of yeast clones to ketoconazole. The class given is cell-based, S. cerevisiae. As to conditions: three W(Ghr, ΔB) clones, human reductase under GAPDH promoter. The method, then:
The second selection: the resistance of the W(Ghr, ΔB) clones to ketoconazole was evaluated (Patent No. WO94/01564) in order to verify the activity of the human reductase expressed under the control of the GAPDH promoter. Three different clones are resistant to 20 mg of ketoconazole/ml, while the W(hR) strain, in which the human reductase is expressed under the control of the GAL10-CYC1 promoter, is only resistant to from 1 to 5 mg/ml under the same conditions.

Series [2] addresses T1, P450 cytochrome 1A1 (Homo sapiens, UniProt P04798).
T1 construct: made in house; host or cells: Saccharomyces cerevisiae W303-derived strains, e.g. W(R, LHb5); microsomal fractions
T1 sequence (P04798 1-512): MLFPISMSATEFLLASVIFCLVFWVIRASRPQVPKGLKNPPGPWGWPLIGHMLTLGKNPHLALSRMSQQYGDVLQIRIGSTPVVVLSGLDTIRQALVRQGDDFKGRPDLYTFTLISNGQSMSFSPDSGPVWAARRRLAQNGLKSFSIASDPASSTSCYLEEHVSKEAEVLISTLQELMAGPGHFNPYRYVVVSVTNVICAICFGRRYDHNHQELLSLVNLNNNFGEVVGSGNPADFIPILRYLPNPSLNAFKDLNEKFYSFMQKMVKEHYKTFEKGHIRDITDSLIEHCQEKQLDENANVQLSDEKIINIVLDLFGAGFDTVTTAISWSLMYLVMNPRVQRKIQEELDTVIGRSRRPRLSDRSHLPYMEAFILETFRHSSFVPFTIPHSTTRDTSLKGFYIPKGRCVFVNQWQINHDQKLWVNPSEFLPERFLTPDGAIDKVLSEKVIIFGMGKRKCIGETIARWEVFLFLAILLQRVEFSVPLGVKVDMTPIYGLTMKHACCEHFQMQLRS
Put plainly: EROD activity test on microsomes (O-deethylation of 7-ethoxyresorufin). The class given is biochemical. As to conditions: microsomes of strain W(R, LHb5), rabbit cytochrome b5 added. The method, then: The P450 cytochrome 1A1 catalyses the O-deethylation of 7-ethoxyresorufin. The product of the reaction, i.e. resorufin (7-hydroxyphenoxazine), fluoresces at 586 nm after excitation at 530 nm. The quantity of resorufin formed per unit time corresponds to the rate of resorufin accumulation.
The incubation mixture comprises:
2 μl of a microsomal suspension (between 20 and 50 μg of microsomal protein) in 1 ml of pH 7.4 TE buffer containing 50 μM NADPH and 2.5 μM 7-ethoxyresorufin. In order to determin the effect of rabbit cytochrome b5 on catalytic efficacy, the microsomal fractions are subjected to prior incubation in the cold in the presence of an excess of purified cytochrome.

For the molecule `CC(=O)N1CCN(c2ccc(OCC3COC(Cn4ccnc4)(c4ccc(Cl)cc4Cl)O3)cc2)CC1` (centres unmarked) [ketoconazole], the “ketoconazole concentration to which the clones are resistant” value in series [1] is 20 mg/mL.

B1: rabbit cytochrome b5: purified rabbit cytochrome b5 added in excess to microsomal fractions (protein, UniProt P00169 2-134, looked up)
Cytochrome b5: AAQSDKDVKYYTLEEIKKHNHSKSTWLILHHKVYDLTKFLEEHPGGEEVLREQAGGDATENFEDVGHSTDARELSKTFIIGELHPDDRSKLSKPMETLITTVDSNSSWWTNWVIPAISALIVALMYRLYMADD
As to B1, the turnover in series [2] is reported as 27 pmol of metabolite/pmol of cytochrome P450 per min.
